Values joined by “and” are separate entries in the source; they are usually repeats but may differ in a detail not shown here. Equal entries are not always repeated.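 Assay format: 96-well plates, 48-hour exposure. GI50 = concentration required for 50% inhibition of growth. Definition used: TGI = concentration required for complete inhibition of growth.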
What was measured:
Experiment in all cases: inhibition of tumour cell growth, NCI panel, 48 h
[1] = test system: A498 renal
[2] = test system: HL-60(TB) leukemia
[3] = test system: HT29 colon
[4] = test system: OVCAR-3 ovarian
[5] = test system: RXF 393 renal
[6] = test system: SF-539 CNS
[7] = test system: SK-MEL-28 melanoma
[8] = test system: SN12C renal
[9] = test system: SNB-75 CNS
[10] = test system: MDA-MB-231 breast

SMILES	TGI [1]	TGI [2]	TGI [3]	TGI [4]	TGI [5]	TGI [6]	TGI [7]	TGI [8]	TGI [9]	GI50 [2]	GI50 [10]	TGI [10]	GI50 [4]	GI50 [6]	GI50 [8]	GI50 [1]	GI50 [3]	GI50 [5]	GI50 [7]	GI50 [9]
CC(N)Cc1ccc(Cl)cc1 (stereo not given)	> 100 µM	> 100 µM	> 100 µM	> 100 µM	> 100 µM	> 100 µM	> 100 µM	> 100 µM	> 100 µM											
O=C1CSC(c2ccc(-c3nc4ccccc4[nH]3)cc2)=N1		> 50 µM		> 50 µM		42.1 µM		> 50 µM		> 50 µM	> 50 µM	> 50 µM	33.8 µM	12.2 µM	> 50 µM					
CN(C)CCNC(=O)c1cccc2nc3ccc4cccnc4c3nc12	0.845 µM	2.91 µM	4.88 µM	4.33 µM	1.3 µM	1.1 µM	2.28 µM	4.31 µM	1.84 µM											
Cc1cc(Br)cc(C)c1NC(=O)C(=O)C(C(=O)c1ccncc1)C1OC(=O)c2ccccc21 (stereo not given)	> 100 µM	> 100 µM		> 100 µM	> 100 µM			> 100 µM												
COc1cccc(OC(=O)c2ccc(C(F)(F)F)nc2Nc2c(C)cccc2Cl)c1	41.3 µM		> 100 µM	69.2 µM	55.7 µM	70.4 µM	71.6 µM	64.3 µM	40.9 µM		12.9 µM	42.5 µM	22.8 µM	23.4 µM	21.4 µM	15 µM	26.4 µM	25 µM	20.5 µM	16.4 µM
C#CCN(N=O)C(=O)NCCCCC(NC(=O)OCc1ccccc1)C(=O)OCc1ccccc1 (stereo not given)	> 100 µM	> 100 µM	> 100 µM	53.9 µM	81.7 µM	37.4 µM	> 100 µM	> 100 µM	> 100 µM											
CC1(C)OC2CC3COC(=O)C3CC2O1 (stereo not given)	> 100 µM	> 100 µM	> 100 µM	> 100 µM		> 100 µM	> 100 µM	> 100 µM	> 100 µM											
C/C(=N\NC(=O)CC#N)C(CN1CCCCC1)C(c1ccccc1)c1c(O)c2ccccc2oc1=O (stereo not given)	82.5 µM	63.3 µM	> 100 µM	> 100 µM		> 100 µM	> 100 µM		> 100 µM			> 100 µM								
Nc1ncnc2c1sc(=S)n2-c1ccccc1	> 100 µM	> 100 µM	> 100 µM	> 100 µM	> 100 µM	> 100 µM	> 100 µM	> 100 µM	> 100 µM											
O=C1NC(=O)C(=Cc2c3ccccc3cc3ccccc23)C(=O)N1	> 100 µM	> 100 µM	> 100 µM		> 100 µM	> 100 µM	> 100 µM	> 100 µM												
S=c1nc(C(c2ccccc2)c2ccccc2)[nH][nH]1	> 100 µM	> 100 µM	> 100 µM	> 100 µM	> 100 µM	> 100 µM	> 100 µM	> 100 µM												
C[C@]12CC[C@@H]3c4ccc(O)cc4CC[C@H]3[C@@H]1CC[C@@H]2NS(=O)(=O)c1cccc(Cl)c1	5.19 µM		6.06 µM		4.9 µM	3.45 µM	5.93 µM	3.8 µM	9.01 µM		2.44 µM	7.75 µM		1.76 µM	1.8 µM	1.56 µM	2.47 µM	1.91 µM	2.24 µM	2.25 µM
CC(=O)O[C@@]12CO[C@@H]1C[C@H](O)[C@@]1(C)C(=O)[C@H](O)C3=C(C)[C@@H](OC(=O)[C@H](O)[C@@H](NC(=O)OC(C)(C)C)c4ccccc4)C[C@@](O)([C@@H](OC(=O)c4ccccc4)C12)C3(C)C (stereo not given in full)	37 µM and 73.1 µM	0.0241 µM and 0.0348 µM	41.7 µM			19.3 µM and 22.9 µM	50.7 µM	50 µM		< 0.005 µM	0.00751 µM and 0.0717 µM	28 µM and > 100 µM	< 0.005 µM	< 0.005 µM	< 0.005 µM		< 0.005 µM		12.7 µM	
O=C1C=C2C=CC3CC2(O1)C1CCCCN31 (stereo not given)	43.9 µM and 91.5 µM and > 100 µM	79.2 µM	46.2 µM and 27.8 µM and > 100 µM	69.6 µM and 48.1 µM and > 100 µM		35.8 µM and > 100 µM and 75.4 µM	39 µM and 36.4 µM and > 100 µM	31.4 µM and 33.7 µM and 74.4 µM	> 100 µM and 62.3 µM and 95.8 µM		19 µM and 21.6 µM and 39.7 µM	> 100 µM and 67.9 µM	18.6 µM and 17.3 µM and 40.6 µM	12.7 µM and 27 µM and 23.2 µM	11.8 µM and 14.8 µM and 25 µM	10.3 µM and 28.4 µM and 48.9 µM	16.1 µM and 12.9 µM and 34.7 µM		17.3 µM and 13.4 µM and 89.3 µM	24.2 µM and 14.6 µM and 31.7 µM
COC1=CC(=O)C2C(C1=O)[C@@H]1c3ccccc3OC(C)(C)[C@H]21 (stereo not given in full)	> 100 µM	33.8 µM	99.4 µM	28.3 µM	27.1 µM	58.3 µM	32.8 µM		> 100 µM											

Reference: PubChem BioAssay (NCI)
